Calls of active or inactive are those of the source.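 The calls were made as follows: active = at least one rat sex group has a carcinogenic potency value and tumor site recorded; inconclusive = only rat studies were judged inadequate by the national testing program; inactive = no potency or tumor site, with negative rat experiments.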
Tested on: rat chronic carcinogenicity bioassay, TD50
Experiment: DSSTox (CPDBAS) Carcinogenic Potency Database Summary Rat Bioassay Results
Settings: for Potency: stronger effect = lower value
Procedure, shortened: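 Chronic long-term rat cancer bioassays from literature and NCI/NTP, taking the most positive result per sex. TD50 in mmol converted to a 1–100 Activity Score from log10(1/TD50). Mixtures lacking TD50 scored 50.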

[1] = TD50_Rat_Note: no positive results, TargetSites_Rat_Female: no positive results
[2] = TD50_Rat_Note: no positive results

For `O=C1c2ccccc2C(=O)c2c(O)cccc21`, the Potency (TD50_Rat_Note: TD50 is harmonic mean of more than one positive test) was 93.5 mg/kg/day.
For `[Cl-].[Cl-].[Sn+2]`, the outcome [1] was “inactive; no positive results”.
For `CC(=O)C(N=Nc1ccc(Cl)cc1Cl)C(=O)Nc1ccc(-c2ccc(NC(=O)C(N=Nc3ccc(Cl)cc3Cl)C(C)=O)c(C)c2)cc1C` (centres undefined), the outcome (TD50_Rat_Note: no positive results, TargetSites_Rat_BothSexes: no positive results) was “inactive”.
`CC(COc1ccccc1)N(CCCl)Cc1ccccc1` (centres undefined) gave a Potency (TD50_Rat_Note: positive test results only by intraperitoneal or intravenous injection, TD50 is harmonic mean of more than one positive, TargetSites_Rat_Female: peritoneal cavity) of 1.09 mg/kg/day.
For `CC1=NN(c2ccccc2)C(=O)C1`, the outcome [1] was “inactive; no positive results”.
For `CCCNC(=O)NS(=O)(=O)c1ccc(Cl)cc1`, the outcome [1] was “inactive; no positive results”.
`Cn1cc[nH]c1=S` gave a Potency (TD50_Rat_Note: TD50 is harmonic mean of more than one positive test, TargetSites_Rat_Female: thyroid gland) of 1.14 mg/kg/day.
With `OCCN(CCO)CCO` the outcome [1] was “inactive; no positive results”.
With `C1CCCNCCC1` the outcome [1] was “inactive; no positive results”.
With `O=P(OC(CCl)CCl)(OC(CCl)CCl)OC(CCl)CCl` the Potency (TD50_Rat_Note: TD50 is harmonic mean of more than one positive test, TargetSites_Rat_Female: kidney, liver) was 46.4 mg/kg/day.
`NS(=O)(=O)c1cc2c(cc1Cl)NCNS2(=O)=O` was tested, and the outcome [1] was “inactive; no positive results”.
In the case of `CCN(Cc1cccc(S(=O)(=O)O)c1)c1ccc(C(=C2C=CC(=[N+](CC)Cc3cccc(S(=O)(=O)[O-])c3)C=C2)c2ccccc2)cc1`, the Potency (TD50_Rat_Note: TD50 is harmonic mean of more than one positive test, TargetSites_Rat_Female: liver, TargetSites_Rat_BothSexes: hematopoietic system) was 6060 mg/kg/day.
`Cc1cc(=O)n(-c2ccccc2)n1C` gave a Potency of 1230 mg/kg/day.
In the case of `C=CC`, the outcome [1] was “inactive; no positive results”.
For `Cc1ccc(-c2cc(C(F)(F)F)nn2-c2ccc(S(N)(=O)=O)cc2)cc1`, the outcome [2] was “inactive; no positive results”.
Molecule `Nc1ccc(S(=O)(=O)c2ccc(N)cc2)cc1` has a Potency (TargetSites_Rat_Female: no positive results) of 22.4 mg/kg/day.
In the case of `CC1(C)COC1=O`, the Potency (TD50_Rat_Note: TD50 is harmonic mean of more than one positive test, TargetSites_Rat_Female: stomach) was 211 mg/kg/day.
`Cn1cnc([N+](=O)[O-])c1Sc1ncnc2nc[nH]c12` was tested, and the outcome [1] was “inactive”.
With `CCn1cc(C(=O)O)c(=O)c2ccc(C)nc21` the Potency (TD50_Rat_Note: TD50 is harmonic mean of more than one positive test, TargetSites_Rat_Female: clitoral gland) was 201 mg/kg/day.
Molecule `COc1ccc(O)c(C(C)(C)C)c1` has a Potency (TD50_Rat_Note: TD50 is harmonic mean of more than one positive test, harmonic mean of TD50 includes a value for upper 99% confidence li, TargetSites_Rat_Female: stomach) of 405 mg/kg/day.
In the case of `N=c1ccn2c(n1)O[C@H]1[C@H](O)[C@@H](CO)O[C@H]12`, the outcome [1] was “inactive; no positive results”.
In the case of `Cc1ccc(N)c(C)c1`, the outcome [2] was “inactive; no positive results”.
`C=CC=C` showed a Potency (TD50_Rat_Note: TD50 is harmonic mean of more than one positive test, greater than ten-fold variation among TD50 values for positive res, TargetSites_Rat_Female: mammary gland) of 261 mg/kg/day.
`CC1CO1` (centres undefined) showed a Potency (TD50_Rat_Note: TD50 is harmonic mean of more than one positive test, greater than ten-fold variation among TD50 values for positive res, TargetSites_Rat_Female: mammary gland, nasal cavity, stomach) of 74.4 mg/kg/day.
With `[CH3][Hg][Cl]` the outcome [1] was “inactive; no positive results”.
For `CC[C@H]1CN2CCc3cc(OC)c(OC)cc3[C@@H]2C[C@@H]1C[C@H]1NCCc2cc(OC)c(OC)cc21`, the outcome (TD50_Rat_Note: only experiment is NCI/NTP bioassay inadequate, TargetSites_Rat_Female: NTP bioassay inadequate) was “ntp bioassay inadequate”.
For `Cc1noc(NS(=O)(=O)c2ccc(N)cc2)c1C`, the outcome [1] was “inactive; no positive results”.
`NC(=O)N(CCO)N=O` was tested, and the Potency (TD50_Rat_Note: TD50 is harmonic mean of more than one positive test, greater than ten-fold variation among TD50 values for positive res, TargetSites_Rat_Female: hematopoietic system, mammary gland) was 0.244 mg/kg/day.
In the case of `NC(=O)Cc1c([O-])on[n+]1Cc1ccccc1`, the Potency was 4.24 mg/kg/day.
